Laboratory results reported in patent US6183953A, “Chromosomal mutagenesis in Pichia methanolica” (ZymoGenetics, Inc., priority 1997, dated 2001).

System: P. methanolica cells (strain CBS6515, UV-mutagenized)
Experiment: Nystatin enrichment for auxotrophic mutants; titering of nystatin-treated versus control cells for colony forming units
Type: cell-based, Pichia methanolica
Settings: 1 mg nystatin added to the remainder of a 500 ml culture in minimal broth with 5 g/L ammonium sulfate, incubated 1 hour with shaking
Procedure: Large-scale mutagenesis was then carried out using a 2-second UV exposure to provide about 20% killing. Cells were plated at approximately 10^4 cells/plate onto eight YEPD plates that were supplemented with 100 mg/L each of uracil, adenine, and leucine, which were added to supplement the growth of potential auxotrophs having the cognate deficiencies. Following UV exposure the plates were wrapped in foil and incubated overnight at 30° C. The following day the colonies on the plates (^~ 10^5 total) were resuspended in water and washed once with water. An amount of cell suspension sufficient to give an OD600 of 0.1-0.2 was used to inoculate 500 ml of minimal broth made with yeast nitrogen base without amino acids or ammonia, supplemented with 1% glucose and 400 μg/L biotin. The culture was placed in a 2.8 L baffled Bell flask and shaken vigorously overnight at 30° C. The following day the cells had reached an OD600 of ^~ 1.0-2.0. The cells were pelleted and resuspended in 500 ml of minimal broth supplemented with 5 g/L ammonium sulfate. The cell suspension was placed in a 2.8 L baffled Bell flask and shaken vigorously at 30° C. for 6 hours. 50 ml of the culture was set aside in a 250-ml flask as a control, and to the remainder of the culture was added 1 mg nystatin (Sigma Chemical Co., St. Louis, Mo.) to select for auxotrophic mutants (Snow, Nature 211:206-207, 1966). […]

C[C@@H]1[C@H](O)[C@@H](C)/C=C/C=C/CC/C=C/C=C/C=C/C=C/C(O[C@H]2O[C@H](C)[C@@H](O)[C@H](N)[C@@H]2O)CC2O[C@](O)(CC(O)C(O)CCC(O)CC(O)CC(O)CC(=O)O[C@H]1C)CC(O)C2C(=O)O (stereo partly shown) [nystatin]
decrease in the number of viable cells (colony forming units), factor versus control cells: 10^4
